The subject of data set [1] is Colo205 xenograft. The experiment in a line: Anti-cancer effect in a Colo205 xenograft mouse model. In kind it is in vivo, BALB/c-nu/nu male mice. Particulars: irinotecan 20 mg/kg once per 4 days injection; for size of tumor compared to administration group of an excipient: formula 1 4 mg/kg every day oral, during administration period (10 weeks); for dead mice: observed for 85 days, formula 1 4 mg/kg daily oral. The text has this: A human colorectal cancer cell line, Colo205 was purchased from ATCC (USA). The Colo205 cell line was maintained with RPMI1640 (Gibco, USA) including 10% fetal bovine serum (FBS; Gibco, Grand Island, N.Y., USA) and 1% antibiotics (Gibco, USA).
The human colorectal carcinoma, Colo205 cell was subcutaneously administered in BALB/c-nu/nu male mice (5×10^6 cell/head), and after grouping in order to making an average size of tumor 165˜167 mm^3, used in experiments.
A compound of formula 1 was prepared by the preparation method disclosed in International Laid-open Patent Publication WO 2009-119980, and prepared at 0.4 mg/ml concentration by dissolving with distilled water.
Irinotecan (Boryung, Korea) was prepared at 2 mg/ml concentration by diluting with 5% glucose saline solution. The solution to be used was prepared on the day of use, and remained solution was discarded.
The anti-cancer effect of the compound of formula 1 and irinotecan was estimated in the Colo205 xenograft model. Experimental groups were divided into the following administration groups. • Control group: vehicle • Single administration group of the compound of formula 1: the compound of formula 1 (4 mg/kg, every day, oral) • Single administration group of irinotecan: irinotecan (20 mg/kg, once per 4 days, injection) • Coadministration group: the compound of formula 1 (4 mg/kg, every day, oral), irinotecan (20 mg/kg, once per 4 days, injection)
All the experimental groups were orally and intraperitoneally administered for 10 weeks. Toxicity was observed by measuring weight of mice, and the growth of tumor was measured using calipers during experimental period. The volume of tumor was calculated according to the following calculation formula. tumor volume=(length×width^2)/2
The data of size of tumor, regression of tumor, and body weight changes was tested using Bartlett's test at significance level α=0.05, and as a result of the test, data having no significance was tested using one-way analysis of variance at significance level α=0.05, and data having significance was tested using Kruskal-Wallis test at significance level α=0.05.
Statistical analysis between each group was performed using GraphPad PRISM® Version 5.0 (GraphPad Software, USA).
Vehicle administration group was euthanized at the day 43 because cancer became too big.

In data set [2] the test system is HCT116 xenograft. The experiment in a line: Anti-cancer effect in a HCT116 xenograft mouse model. In kind it is in vivo, Athymic nude mouse (Hsd:Athymic Nude-Foxn1nu) male mice. The following applies: formula 1 5 mg/kg once a week injection, irinotecan 20 mg/kg once per 4 days injection, intraperitoneal, 4 weeks. On the procedure: A human colorectal cancer cell line, HCT116 was purchased from ATCC (USA). The HCT116 cell line was maintained with RPMI1640 (Gibco, USA) including 10% fetal bovine serum (FBS; Gibco, USA).
The human colorectal carcinoma, HCT116 cell was subcutaneously administered in Athymic nude mouse (Hsd:Athymic Nude-Foxn1^nu) male mice (5×10^6 cell/head), and used in experiments when the size of tumor became 150-200 mm^3.
A compound of formula 1 was prepared by the preparation method disclosed in International Laid-open Patent Publication WO 2009-119980, and prepared at 0.5 mg/ml concentration by dissolving with 0.9% saline solution.
Irinotecan (Jeilpharm, Korea) was prepared at 2 mg/ml concentration by diluting with 5% dextrose solution.
The anti-cancer effect of the compound of formula 1 and irinotecan was estimated in the HCT116 xenograft model. […]
All the experimental groups were intraperitoneally administered for 4 weeks. Toxicity was observed by measuring weight of mice, and the growth of tumor was measured using calipers during experimental period. The volume of tumor was calculated according to the following calculation formula. tumor volume=(length×width^2)/2 […]

Regarding `COc1cc(C(=O)c2ccc(-c3csc(NC(=O)[C@@H](N)C(C)C)n3)cc2-n2cncn2)cc(OC)c1OC` [compound of formula 1, (S)-N-(4-(3-(1H-1,2,4-triazol-1-yl) -4-(3,4,5-trimethoxybenzoyl)phenyl)thiazol-2-yl)-2-amino-3-methylbutanamide], in data set [1], the “size of tumor compared to administration group of an excipient” value was “significantly decreased” and the dead mice came to 8 mice. In data set [2], the “size of tumor compared to administration group of an excipient” value is recorded as “significantly decreased”.
With `CCc1c2c(nc3ccc(OC(=O)N4CCC(N5CCCCC5)CC4)cc13)-c1cc3c(c(=O)n1C2)COC(=O)[C@]3(O)CC` [irinotecan], in data set [1], the “size of tumor compared to administration group of an excipient” value is given as “significantly decreased” and the dead mice entry was “no dead subject”. In addition, the “size of tumor compared to administration group of an excipient” value in data set [2] was “significantly decreased”.

Source of the values: US9980953B2, “Combined composition for preventing or treating cancer comprising a benzophenone thiazole derivatives as a VDA and topoisomerase inhibitor” (CHONG KUN DANG PHARMACEUTICAL CORP., priority 2016, dated 2018).
